Measurements published in US6355799B1, “Substituted benzene compounds, process for their preparation, and herbicidal and defoliant compositions containing them” (ISK Americas Incorporated, priority 1997, dated 2002).

Columns and labels:
Assay type in all cases: in vivo
[1] = test system: upland rice (Oryza sp., var. Tebonnet, RICE); experiment: Pre-emerge test, crop safety; conditions: crop damage rating 0-100, 14 days after application
Procedure, shortened: (§1)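 Visual ratings on a 0-100 scale (0 no damage, 100 all plants dead) were taken at 14 days after treatment. Rates of 15-1000 g ai/ha in acetone, 187 l/ha, were sprayed onto soil one day after planting (pre-emerge) or onto 2-3 leaf plants with 0.25% v/v surfactant (post-emerge).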

[2] = test system: field corn (Zea mays L., var. Dekalb 535, CORN); experiment: Pre-emerge test, crop safety; conditions: crop damage rating 0-100, 14 days after application
Procedure, shortened: as §1

[3] = test system: upland rice (Oryza sp., var. Tebonnet, RICE); experiment: Post-emerge test, crop safety; conditions: post-emerge, 14 days after application, rating scale 0-100
Procedure, shortened: (§2)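 Each test used a mechanized track sprayer delivering 187 l/ha of acetone solution at 15–1000 g ai/ha. Post-emerge foliage at 2–3 leaves was treated with added 0.25% v/v non-ionic surfactant and bottom-watered only. Injury was assessed on day 14, where 100 means total kill.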

[4] = test system: field corn (Zea mays L., var. Dekalb 535, CORN); experiment: Post-emerge test, crop safety; conditions: post-emerge, 14 days after application, rating scale 0-100
Procedure, shortened: as §2

[5] = test system: ivyleaf morningglory (Ipomoea hederacea, IPOHE); experiment: Pre-emerge test, greenhouse herbicide activity screening; conditions: phytotoxicity rating 0-100, 14 days after application
Procedure, shortened: (§3)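 Plants grown in 10 cm pots of sandy loam mix received acetone-dissolved compounds through a moving flat-fan nozzle. Doses ranged from 15 to 1000 g ai/ha. Pre-emerge pots were seeded one day earlier, post-emerge pots 8–21 days earlier. Fourteen days on, each pot was graded 0–100 for damage.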

[6] = test system: lambsquarters (Chenopodium album, CHEAL); experiment: as above; conditions: phytotoxicity rating 0-100, 14 days after application
Procedure, shortened: as §3

[7] = test system: large crabgrass (Digitaria sanguinalis, DIGSA); experiment: as above; conditions: phytotoxicity rating 0-100, 14 days after application
Procedure, shortened: as §3

[8] = test system: sicklepod (Cassia obtusifolia, CASOB); experiment: as above; conditions: phytotoxicity rating 0-100, 14 days after application
Procedure, shortened: as §3

[9] = test system: green foxtail (Setaria viridis, SETVI); experiment: as above; conditions: phytotoxicity rating 0-100, 14 days after application
Procedure, shortened: as §3

[10] = test system: barnyardgrass (Echinochloa crus-galli, ECHCG); experiment: as above; conditions: phytotoxicity rating 0-100, 14 days after application
Procedure, shortened: as §3

[11] = test system: johnsongrass (Sorghum halepense, SORHA); experiment: as above; conditions: phytotoxicity rating 0-100, 14 days after application
Procedure, shortened: as §3

[12] = test system: velvetleaf (Abutilon theophrasti, ABUTH); experiment: as above; conditions: phytotoxicity rating 0-100, 14 days after application
Procedure, shortened: as §3

[13] = test system: redroot pigweed (Amaranthus retroflexus, AMARE); experiment: Post-emerge test, greenhouse herbicide activity screening; conditions: post-emerge, 14 days after application
Procedure, shortened: (§4)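 Rating: 0–100 visual injury, 14 DAA. Application: acetone, 187 l/ha, 15–1000 g ai/ha, flat-fan track sprayer with nozzle 40–45 cm above soil or canopy. Post-emerge runs used 0.25% v/v surfactant on 2–3 leaf plants.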

[14] = test system: ivyleaf morningglory (Ipomoea hederacea, IPOHE); experiment: as above; conditions: post-emerge, 14 days after application, rating scale 0-100
Procedure, shortened: as §4

[15] = test system: lambsquarters (Chenopodium album, CHEAL); experiment: as above; conditions: post-emerge, 14 days after application, rating scale 0-100
Procedure, shortened: as §4

[16] = test system: large crabgrass (Digitaria sanguinalis, DIGSA); experiment: as above; conditions: post-emerge, 14 days after application, rating scale 0-100
Procedure, shortened: as §4

[17] = test system: sicklepod (Cassia obtusifolia, CASOB); experiment: as above; conditions: post-emerge, 14 days after application, rating scale 0-100
Procedure, shortened: as §4

[18] = test system: green foxtail (Setaria viridis, SETVI); experiment: as above; conditions: post-emerge, 14 days after application, rating scale 0-100
Procedure, shortened: as §4

[19] = test system: barnyardgrass (Echinochloa crus-galli, ECHCG); experiment: as above; conditions: post-emerge, 14 days after application, rating scale 0-100
Procedure, shortened: as §4

[20] = test system: johnsongrass (Sorghum halepense, SORHA); experiment: as above; conditions: post-emerge, 14 days after application, rating scale 0-100
Procedure, shortened: as §4

[21] = test system: velvetleaf (Abutilon theophrasti, ABUTH); experiment: as above; conditions: post-emerge, 14 days after application, rating scale 0-100
Procedure, shortened: as §4

[22] = test system: redroot pigweed (Amaranthus retroflexus, AMARE); experiment: Pre-emerge test, greenhouse herbicide activity screening; conditions: phytotoxicity rating 0-100, 14 days after application
Procedure, shortened: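 Herbicidal damage is scored 0 (none) to 100 (complete plant death) two weeks after a simulated field spray. Rates span 15–1000 g ai/ha, delivered in acetone at 187 l/ha. For post-emergence treatments, plants have 2–3 leaves and the spray carries 0.25% v/v non-ionic surfactant.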

## COc1c(Cl)cc(F)c(-n2c(=O)cc(C(F)(F)F)n(C)c2=O)c1NC(=O)OCc1ccc(F)c(F)c1 [4-30]
[1]; 63 g ai/ha
  Pre-emerge Herbicidal Activity RICE: 90
[1]; 250 g ai/ha
  Pre-emerge Herbicidal Activity RICE: 90
[2]; 63 g ai/ha
  Pre-emerge Herbicidal Activity CORN: 30
[2]; 250 g ai/ha
  Pre-emerge Herbicidal Activity CORN: 70
[3]; 63 g ai/ha
  phytotoxicity rating RICE (crop damage): 80
[3]; 250 g ai/ha
  phytotoxicity rating RICE (crop damage): 85
[4]; 63 g ai/ha
  phytotoxicity rating CORN (crop damage): 90
[4]; 250 g ai/ha
  phytotoxicity rating CORN (crop damage): 99
[5]; 63 g ai/ha
  Pre-emerge Herbicidal Activity IPOHE: 60
[5]; 250 g ai/ha
  Pre-emerge Herbicidal Activity IPOHE: 100
[6]; 63 g ai/ha
  Pre-emerge Herbicidal Activity CHEAL: 100
[6]; 250 g ai/ha
  Pre-emerge Herbicidal Activity CHEAL: 100
[7]; 63 g ai/ha
  Pre-emerge Herbicidal Activity DIGSA: 90
[7]; 250 g ai/ha
  Pre-emerge Herbicidal Activity DIGSA: 100
[8]; 63 g ai/ha
  Pre-emerge Herbicidal Activity CASOB: 90
[8]; 250 g ai/ha
  Pre-emerge Herbicidal Activity CASOB: 95
[9]; 63 g ai/ha
  Pre-emerge Herbicidal Activity SETVI: 100
[9]; 250 g ai/ha
  Pre-emerge Herbicidal Activity SETVI: 100
[10]; 63 g ai/ha
  Pre-emerge Herbicidal Activity ECHCG: 60
[10]; 250 g ai/ha
  Pre-emerge Herbicidal Activity ECHCG: 90
[11]; 63 g ai/ha
  Pre-emerge Herbicidal Activity SORHA: 30
[11]; 250 g ai/ha
  Pre-emerge Herbicidal Activity SORHA: 80
[12]; 63 g ai/ha
  Pre-emerge Herbicidal Activity ABUTH: 100
[12]; 250 g ai/ha
  Pre-emerge Herbicidal Activity ABUTH: 100
[13]; 63 g ai/ha, rating scale 0-100 (0 no damage, 100 complete death)
  phytotoxicity rating AMARE: 100
[13]; 250 g ai/ha, rating scale 0-100
  phytotoxicity rating AMARE: 100
[14]; 63 g ai/ha
  phytotoxicity rating IPOHE: 100
[14]; 250 g ai/ha
  phytotoxicity rating IPOHE: 100
[15]; 63 g ai/ha
  phytotoxicity rating CHEAL: 100
[15]; 250 g ai/ha
  phytotoxicity rating CHEAL: 100
[16]; 63 g ai/ha
  phytotoxicity rating DIGSA: 50
[16]; 250 g ai/ha
  phytotoxicity rating DIGSA: 85
[17]; 63 g ai/ha
  phytotoxicity rating CASOB: 100
[17]; 250 g ai/ha
  phytotoxicity rating CASOB: 100
[18]; 63 g ai/ha
  phytotoxicity rating SETVI: 80
[18]; 250 g ai/ha
  phytotoxicity rating SETVI: 100
[19]; 63 g ai/ha
  phytotoxicity rating ECHCG: 50
[19]; 250 g ai/ha
  phytotoxicity rating ECHCG: 90
[20]; 63 g ai/ha
  phytotoxicity rating SORHA: 50
[20]; 250 g ai/ha
  phytotoxicity rating SORHA: 100
[21]; 63 g ai/ha
  phytotoxicity rating ABUTH: 100
[21]; 250 g ai/ha
  phytotoxicity rating ABUTH: 100
[22]; 63 g ai/ha
  Pre-emerge Herbicidal Activity AMARE: 100
[22]; 250 g ai/ha
  Pre-emerge Herbicidal Activity AMARE: 100
